Data: ChEMBL document CHEMBL1152484, “3D-QSAR studies on the inhibitors of AP-1 and NF-kappaB mediated transcriptional activation” (Eur J Med Chem, 2009)
pIC50: −log10 of the molar value.

Assay: Inhibition of AP-1/NF-kappaB transfected in human jurkat T cells assessed as inhibition of transcriptional activation
Format: cell-based

CCOC(=O)c1cnc(C)nc1NN1C(=O)C=C(C)C1=O
pIC50: 4.80

CCOC(=O)c1cnc(-c2cccc(Br)c2)nc1NN1C(=O)C=C(C)C1=O
pIC50: 6.16

CC1=CC(=O)N(Nc2nc(-c3cccs3)nc3cccc(C)c23)C1=O
pIC50: 7.70

CCOC(=O)c1cnc(SC)nc1NN1C(=O)C=C(C)C1=O
pIC50: 6.70

CC1=CC(=O)N(Nc2nc(C(F)(F)F)nc3ccc([S+](C)[O-])cc23)C1=O (stereo not drawn)
pIC50: 6.00

CC1=CC(=O)N(Nc2nc(-c3cccs3)ncc2-c2nnc(C)o2)C1=O
pIC50: 6.52

CC1=CC(=O)N(Nc2nc(-c3ccccc3)nc3ccccc23)C1=O
pIC50: 7.00

CCOC(=O)c1cnc(-c2cccs2)nc1N(C)N1C(=O)C=C(C)C1=O
pIC50: 6.00

CCOC(=O)c1cnc(-c2cccs2)nc1NN1C(=O)C=C(C)C1=O
pIC50: 7.70

CCOC(=O)c1cnc(-c2cccc(OC)c2)nc1NN1C(=O)C=C(C)C1=O
pIC50: 5.30

CSc1ccc2nc(C(F)(F)F)nc(NN3C(=O)C=C(C)C3=O)c2c1
pIC50: 7.10

CC1=CC(=O)N(Nc2nc(-c3cccs3)nc3cc(N4CCOCC4)ccc23)C1=O
pIC50: 6.70

CCOC(=O)c1cnc(C(F)(F)F)nc1NN1C(=O)C(C)=C(C)C1=O
pIC50: 5.00

COc1ccc2nc(C(F)(F)F)nc(NN3C(=O)C=C(C)C3=O)c2c1
pIC50: 7.52

CCOC(=O)c1cnc(-c2ccc(Cl)cc2)nc1NN1C(=O)C=C(C)C1=O
pIC50: 6.52

CCOC(=O)c1cnc(-c2ccccc2)nc1N(C)N1C(=O)C=C(C)C1=O
pIC50: 5.70

CCOC(=O)c1cnc(-c2cc(Cl)cc(Cl)c2)nc1NN1C(=O)C=C(C)C1=O
pIC50: 6.52

CCOC(=O)c1cnc(-c2ccc(C)s2)nc1NN1C(=O)C=C(C)C1=O
pIC50: 6.70

CC1=CC(=O)N(Nc2nc(-c3cccs3)ncc2C#N)C1=O
pIC50: 5.30

COc1cc2c(NN3C(=O)C=C(C)C3=O)nc(-c3cccs3)nc2c(OC)c1OC
pIC50: 7.40

CCOC(=O)c1cnc(C(F)(F)F)nc1NN1C(=O)C=CC1=O
pIC50: 5.00

CCOC(=O)c1cnc(-c2ccccc2)nc1N(C(C)=O)N1C(=O)C=C(C)C1=O
pIC50: 5.40

CCOC(=O)c1cnc(-c2ccc(C(F)(F)F)cc2)nc1NN1C(=O)C=C(C)C1=O
pIC50: 6.40

COc1ccc2c(NN3C(=O)C=C(C)C3=O)nc(-c3cccs3)nc2c1
pIC50: 7.70

CC1=CC(=O)N(Nc2nc(-c3cccs3)ncc2-c2nc(C)co2)C1=O
pIC50: 6.70

CC1=CC(=O)N(Nc2nc(-c3cccs3)ncc2C2=NCCO2)C1=O
pIC50: 6.70

CCOC(=O)c1cnc(Sc2ccccc2)nc1NN1C(=O)C=C(C)C1=O
pIC50: 6.00

CCOC(=O)c1cnc(CC)nc1NN1C(=O)C=C(C)C1=O
pIC50: 5.00

CC1=CC(=O)N(Nc2nc(-c3cccs3)ncc2-c2cc(C)no2)C1=O
pIC50: 6.52

CC1=CC(=O)N(Nc2nc(-c3cccs3)nc3cccc(F)c23)C1=O
pIC50: 7.30

CCOC(=O)c1cnc(Cc2ccccc2)nc1NN1C(=O)C=C(C)C1=O
pIC50: 5.16

CC1=CC(=O)N(Nc2nc(C(F)(F)F)nc3cc(N4CCCCC4)ccc23)C1=O
pIC50: 6.70

CC1=CC(=O)N(Nc2nc(C(F)(F)F)nc3cccc(C)c23)C1=O
pIC50: 6.40

CCOC(=O)c1cnc(C(=O)c2ccco2)nc1NN1C(=O)C=C(C)C1=O
pIC50: 6.70

CCOC(=O)c1cnc(-c2ccccc2)nc1NN1C(=O)C=C(C)C1=O
pIC50: 7.00

CCOC(=O)c1cnc(CC)nc1N(C)N1C(=O)C=C(C)C1=O
pIC50: 5.00

CCOC(=O)c1cnc(-c2cccc([N+](=O)[O-])c2)nc1NN1C(=O)C=C(C)C1=O
pIC50: 5.16

CCOC(=O)c1cnc(-c2ccc(F)cc2)nc1NN1C(=O)C=C(C)C1=O
pIC50: 6.16

COc1cccc2c(NN3C(=O)C=C(C)C3=O)nc(-c3cccs3)nc12
pIC50: 7.30

CC1=CC(=O)N(Nc2nc(C(F)(F)F)nc3ccc(S(C)(=O)=O)cc23)C1=O
pIC50: 5.05

CC1=CC(=O)N(Nc2nc(-c3cccs3)nc3ccc(Cl)cc23)C1=O
pIC50: 7.70

CCOC(=O)c1cnc(-c2ccsc2)nc1NN1C(=O)C=C(C)C1=O
pIC50: 7.00

CC1=CC(=O)N(Nc2nc(C(F)(F)F)nc3ccccc23)C1=O
pIC50: 7.00

CCOC(=O)c1cnc(CC2=CCCCC2)nc1NN1C(=O)C=C(C)C1=O
pIC50: 5.70

CCOC(=O)c1cnc(C(C)(C)C)nc1NN1C(=O)C=C(C)C1=O
pIC50: 6.00

CC1=CC(=O)N(Nc2nc(C(F)(F)F)nc3cc(N(C)C)ccc23)C1=O
pIC50: 7.70

CCOC(=O)c1cnc(Oc2ccccc2)nc1NN1C(=O)C=C(C)C1=O
pIC50: 4.82

CCOC(=O)c1cnc(-c2cnc3ccccc3c2)nc1NN1C(=O)C=C(C)C1=O
pIC50: 5.00

CCOC(=O)c1cnc(-c2ccc(F)cc2)nc1N(C)N1C(=O)C=C(C)C1=O
pIC50: 5.52

CCOC(=O)c1cnc(S(=O)(=O)c2ccccc2)nc1NN1C(=O)C=C(C)C1=O
pIC50: 5.00

CCOC(=O)c1cnc(C(F)(F)F)nc1NN1C(=O)C=C(C)C1=O
pIC50: 6.00

COc1cccc2nc(-c3cccs3)nc(NN3C(=O)C=C(C)C3=O)c12 [AS-602868]
pIC50: 8.10

CCOC(=O)c1cnc(-c2cc(Cl)nc(Cl)c2)nc1NN1C(=O)C=C(C)C1=O
pIC50: 5.70

CC1=CC(=O)N(Nc2nc(-c3cccs3)nc3cc(N(C)C)ccc23)C1=O
pIC50: 7.40

CCOC(=O)c1cnc(C(F)(F)F)nc1NN1C(=O)C=C(c2ccccc2)C1=O
pIC50: 4.70

CCOC(=O)c1cnc(-c2csc(C)n2)nc1NN1C(=O)C=C(C)C1=O
pIC50: 5.10

CCOC(=O)c1cnc(-c2ccc(Cl)s2)nc1NN1C(=O)C=C(C)C1=O
pIC50: 6.52

COc1cc2nc(-c3cccs3)nc(NN3C(=O)C=C(C)C3=O)c2cc1OC
pIC50: 7.30

CC1=CC(=O)N(Nc2nc(-c3cccs3)nc3ccccc23)C1=O
pIC50: 7.22

COc1cccc2nc(C(F)(F)F)nc(NN3C(=O)C=C(C)C3=O)c12
pIC50: 8.00

CCOC(=O)c1cnc(-c2ccncc2)nc1NN1C(=O)C=C(C)C1=O
pIC50: 5.22

CCOC(=O)c1cnc(C2CC2)nc1NN1C(=O)C=C(C)C1=O
pIC50: 6.00

CCOC(=O)c1cnc(-n2nc(C)cc2C)nc1NN1C(=O)C=C(C)C1=O
pIC50: 5.00

COc1ccc2nc(-c3cccs3)nc(NN3C(=O)C=C(C)C3=O)c2c1
pIC50: 8.52

CC1=CC(=O)N(Nc2nc(C(F)(F)F)nc3ccc(O)cc23)C1=O
pIC50: 7.00

CCOC(=O)c1cnc(-c2ccc(OC)cc2)nc1NN1C(=O)C=C(C)C1=O
pIC50: 6.05

CCOC(=O)c1cnc(-c2cc3ccccc3s2)nc1NN1C(=O)C=C(C)C1=O
pIC50: 5.40

CC1=CC(=O)N(Nc2nc(-c3cccs3)ncc2-c2nnn(C)n2)C1=O
pIC50: 6.70
